Test results published in PMC2362906, “Effects of new 17α-hydroxylase/C17,20-lyase inhibitors on LNCaP prostate cancer cell growth in vitro and in vivo” (British Journal of Cancer, 1999).

Legend:
[1] = test system: serum DHT; assay: Serum DHT (RIA) in SCID mice; assay type: in vivo, male SCID mice; conditions: 28 days of treatment, 50 mg kg-1 day-1
Description: (§1) Prostate cancer is the most common malignancy and the second leading cause of cancer-related deaths among men in the US and the UK (Shibata et al, 1998). […] Steroidal 17-hydroxylase/C17,20 -lyase (P450c17) (EC 1.14.99.0) was selected as the target enzyme for inhibition, as this is a key regulatory enzyme of androgen synthesis. P450c17 catal- yses two sequential reactions in the steroid biosynthetic pathway and converts pregnenolone and progesterone to the C-19 andro- gens, dehydroepiandrosterone and androstenedione respectively. This enzyme has an identical amino acid sequence in testicular and adrenal tissues (Chung et al, 1987). […] In order to evaluate the effectiveness of these inhibitors we developed a multi-step system, which utilized the LNCaP human prostate cancer cell line. LNCaP cells remain the only androgen receptor (AR)-positive prostate cancer cell line, that can be readily grown in tissue culture (Horoszewicz et al, 1983). These cells respond to androgens with increased cell proliferation and elevated expression of prostate specific antigen (PSA) (Berns et al, 1993). LNCaP cells at early passages are not only androgen-responsive, but also androgen- dependent (Pousette et al, 1997). This is similar to the situation in most tumours of prostatic cancer patients, which are initially highly responsive and dependent on androgens. […] Therefore, we employed LNCaP cells as a model for evaluating the effectiveness of our new inhibitors of androgen synthesis. In this study the compounds selected for evaluation were two groups of azolyl steroids. […] Here we report on the application of LNCaP-CYP17-transfected cells for determining the inhibitory potencies of the new compounds against the P450c17 enzyme. […] We designed and evaluated two groups of azolyl steroids: 5-non-competitive inhibitors (5NCIs), VN/63-1, VN/85-1, VN/87-1 and their corresponding 4 derivatives (4NCIs), VN/107-1, VN/108-1 and VN/109-1. The human P450c17 gene was transfected into LNCaP human prostate cancer cells, and the resultant LNCaP- CYP17 cells were utilized to evaluate the inhibitory potency of the new azolyl steroids. […] We further evaluated our inhibitors in male severe combined immuno- deficient mice bearing LNCaP tumour xenografts. […] We also utilized wild-type LNCaP prostatic carcinoma cells for evaluating the direct effects of new azolyl steroids on proliferation of these cells in vitro and in vivo. MATERIALS AND METHODS Materials The human prostate cancer cell line LNCaP was obtained from the American Type Culture Collection (Rockville, MD, USA). RPMI- 1640 medium, trypsin-EDTA (0.25%/0.02%), penicillin/strepto- mycin (P/S), geniticin (G418), and LipofectAMINE were from Gibco-BRL (Grand Island, NY, USA). Fetal bovine serum (FBS) was obtained from Summit Biotechnology Inc. (Fort Collins, CO, USA) and steroid-free FBS was prepared as described previously (Klus et al, 1996). Phenol red free IMEM and trypsin-versine were purchased from Biofluids Inc. (Rockville, MD, USA). Chloroform and acetonitrile were purchased from JT Baker, Inc (Phillipsburg, NJ, USA). Hydroxypropyl cellulose (HPC) was purchased from Sigma Chemical Co. (St Louis, MO, USA). The PSA enzyme- linked immunusorbent assay (ELISA) kit was from DSL Inc. (Webster, TX, USA). Matrigel was generously supplied by Dr Hynda Kleinman (NIH, Bethesda, MD, USA). Inhibitors of androgen synthesis: VN/63-1, VN/85-1, VN/87-1, VN/107-1, VN/108-1 and VN/109-1 were synthesized in our labo- ratory as previously described (Njar et al, 1998). […] Metribolone [17-methyl-3 H]-R1881 ([3 H]-R1881: specific activity 86 Ci mmol-1 ) was purchased from Dupont NEN (Boston, MA, USA).

[2] = molecular target: human prostatic 5-reductase; design: method as in Njar et al, 1998; conditions: human prostatic microsomes; reported previously; ref Njar et al, 1998; cited from earlier work
[3] = test system: LNCaP cells; assay: DHT-stimulated wild-type LNCaP cell growth; assay type: cell-based, human; conditions: 0.03 nM DHT, 9 days
Description: as §1

[4] = molecular target: T1, human 17α-hydroxylase/C17,20-lyase (P450c17) expressed in LNCaP-CYP17 cells (Homo sapiens, UniProt P05093); assay: [3H]-acetic acid releasing assay (AARA) with LNCaP-CYP17 cells; assay type: cell-based; conditions: for IC50: LNCaP-CYP17 cells, 7 μM [21-3H]17-OHP5, 16 h, mean ± s.e.m., three experiments
T1 sequence (P05093 9-508 limits assumed): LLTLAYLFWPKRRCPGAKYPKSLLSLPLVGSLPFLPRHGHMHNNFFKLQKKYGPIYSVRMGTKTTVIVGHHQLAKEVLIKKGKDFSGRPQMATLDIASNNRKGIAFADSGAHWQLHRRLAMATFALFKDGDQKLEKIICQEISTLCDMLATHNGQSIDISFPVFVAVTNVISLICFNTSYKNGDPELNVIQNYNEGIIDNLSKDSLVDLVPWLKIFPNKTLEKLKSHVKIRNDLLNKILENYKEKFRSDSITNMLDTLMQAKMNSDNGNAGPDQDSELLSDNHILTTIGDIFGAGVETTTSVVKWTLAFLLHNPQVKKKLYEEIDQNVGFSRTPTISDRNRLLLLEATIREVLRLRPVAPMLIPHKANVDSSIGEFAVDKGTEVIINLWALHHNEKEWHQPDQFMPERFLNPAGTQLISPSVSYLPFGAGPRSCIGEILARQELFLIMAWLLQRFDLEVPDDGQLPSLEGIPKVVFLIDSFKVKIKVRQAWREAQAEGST

[5] = test system: LNCaP cells; assay: Testosterone-stimulated wild-type LNCaP cell growth; assay type: cell-based, human; conditions: 0.1 nM testosterone, 9 days; for Effect on testosterone-stimulated cell growth (words): 0.5-5.0 μM compound
Description: as §1

[6] = test system: serum testosterone; assay: Serum testosterone (RIA) in SCID mice; assay type: in vivo, male SCID mice; conditions: 28 days of treatment, 50 mg kg-1 day-1
Description: as §1

[7] = test system: LNCaP tumour xenografts; assay: LNCaP tumour xenograft growth in male SCID mice; assay type: in vivo; conditions: 50 mg kg-1 day-1, 28 days; for Reduction of tumour weights compared to vehicle-treated mice: first experiment
Description: as §1

[8] = test system: serum PSA; assay: Serum PSA (ELISA) in LNCaP tumour-bearing SCID mice; assay type: in vivo, male SCID mice; conditions: 50 mg kg-1 day-1, 28 days
Description: (§2) Prostate cancer is the most common malignancy and the second leading cause of cancer-related deaths among men in the US and the UK (Shibata et al, 1998). […] Steroidal 17-hydroxylase/C17,20 -lyase (P450c17) (EC 1.14.99.0) was selected as the target enzyme for inhibition, as this is a key regulatory enzyme of androgen synthesis. P450c17 catal- yses two sequential reactions in the steroid biosynthetic pathway and converts pregnenolone and progesterone to the C-19 andro- gens, dehydroepiandrosterone and androstenedione respectively. This enzyme has an identical amino acid sequence in testicular and adrenal tissues (Chung et al, 1987). […] In order to evaluate the effectiveness of these inhibitors we developed a multi-step system, which utilized the LNCaP human prostate cancer cell line. LNCaP cells remain the only androgen receptor (AR)-positive prostate cancer cell line, that can be readily grown in tissue culture (Horoszewicz et al, 1983). These cells respond to androgens with increased cell proliferation and elevated expression of prostate specific antigen (PSA) (Berns et al, 1993). LNCaP cells at early passages are not only androgen-responsive, but also androgen- dependent (Pousette et al, 1997). This is similar to the situation in most tumours of prostatic cancer patients, which are initially highly responsive and dependent on androgens. […] Therefore, we employed LNCaP cells as a model for evaluating the effectiveness of our new inhibitors of androgen synthesis. In this study the compounds selected for evaluation were two groups of azolyl steroids. […] Here we report on the application of LNCaP-CYP17-transfected cells for determining the inhibitory potencies of the new compounds against the P450c17 enzyme. […] We designed and evaluated two groups of azolyl steroids: 5-non-competitive inhibitors (5NCIs), VN/63-1, VN/85-1, VN/87-1 and their corresponding 4 derivatives (4NCIs), VN/107-1, VN/108-1 and VN/109-1. The human P450c17 gene was transfected into LNCaP human prostate cancer cells, and the resultant LNCaP- CYP17 cells were utilized to evaluate the inhibitory potency of the new azolyl steroids. […] We further evaluated our inhibitors in male severe combined immuno- deficient mice bearing LNCaP tumour xenografts. […] We also utilized wild-type LNCaP prostatic carcinoma cells for evaluating the direct effects of new azolyl steroids on proliferation of these cells in vitro and in vivo. MATERIALS AND METHODS Materials The human prostate cancer cell line LNCaP was obtained from the American Type Culture Collection (Rockville, MD, USA). RPMI- 1640 medium, trypsin-EDTA (0.25%/0.02%), penicillin/strepto- mycin (P/S), geniticin (G418), and LipofectAMINE were from Gibco-BRL (Grand Island, NY, USA). Fetal bovine serum (FBS) was obtained from Summit Biotechnology Inc. (Fort Collins, CO, USA) and steroid-free FBS was prepared as described previously (Klus et al, 1996). Phenol red free IMEM and trypsin-versine were purchased from Biofluids Inc. (Rockville, MD, USA). Chloroform and acetonitrile were purchased from JT Baker, Inc (Phillipsburg, NJ, USA). Hydroxypropyl cellulose (HPC) was purchased from Sigma Chemical Co. (St Louis, MO, USA). The PSA enzyme- linked immunusorbent assay (ELISA) kit was from DSL Inc. (Webster, TX, USA). Matrigel was generously supplied by Dr Hynda Kleinman (NIH, Bethesda, MD, USA). […]

[9] = test system: LNCaP cells; assay: LNCaP cell growth in steroid-free medium; assay type: cell-based, human
Description: as §2, with “USA).” for “USA). Fetal bovine serum (FBS) was obtained from Summit Biotechnology Inc. (Fort Collins, CO, USA) and steroid-free FBS was prepared as described previously (Klus et al, 1996). Phenol red free IMEM and trypsin-versine were purchased from Biofluids Inc. (Rockville, MD, USA). Chloroform and acetonitrile were purchased from JT Baker, Inc (Phillipsburg, NJ, USA). Hydroxypropyl cellulose (HPC) was purchased from Sigma Chemical Co. (St Louis, MO, USA). The PSA enzyme- linked immunusorbent assay (ELISA) kit was from DSL Inc. (Webster, TX, USA). Matrigel was generously supplied by Dr Hynda Kleinman (NIH, Bethesda, MD, USA).”

[10] = Table 3, second experiment, control 239.2
[11] = Table 3, second experiment, control 0.205
[12] = Table 2, first experiment, control 243.8
[13] = Table 2, first experiment, control 1.043

## C[C@]12CCC(=O)C=C1CC[C@@H]1[C@@H]2CC[C@]2(C)C(n3cncn3)=CC[C@@H]12 [VN/107-1]
[1]; [10]
  Serum DHT: 180.2 pg/mL
[2]
  IC50: 152 nM
[3]; 0.5-5.0 μM compound
  Effect on DHT-induced cell proliferation: least effective inhibitors of androgen-induced cell pro- liferation
[4]
  IC50: 12.4 nM
[5]
  Effect on testosterone-stimulated cell growth (words): ineffective against testosterone-stimulated cell growth
[6]; [11]
  Serum Testosterone: 0.153 ng/mL
[7]; second experiment
  Effect on tumour growth (words): no significant effects on tumour growth or tumour weights
[7]; second experiment, listed as VN/107
  Effect on tumour growth (words): Neither VN/63-1, VN/107 nor ketoconazole had any appreciable effects

## CC(=O)[C@@]1(O)CC[C@H]2[C@@H]3CC=C4C[C@@H](O)CC[C@]4(C)[C@H]3CC[C@@]21C [[213 H]17-hydroxypregnenolone, [21-3 H]17-Hydroxypregnenolone, reference compound]
[4]; substrate 0.5-20 μM, 16 h, 37C, RADLIG software
  Km: 0.87 µM

## C[C@]12CC[C@H](O)CC1=CC[C@@H]1[C@@H]2CC[C@]2(C)C(n3ccnc3)=CC[C@@H]12 [VN/85-1]
[8]; first experiment
  Serum PSA levels versus control: significantly lower
[1]; [12]
  Serum DHT: 143.7 pg/mL
[2]
  IC50: > 5000 nM
[3]
  Concentration that completely blocked DHT stimulation: 1.0 µM
[4]
  IC50: 1.25 ± 0.44 nM
[5]
  Concentration that completely inhibited the growth stimulatory effect of testosterone: 1.0 µM
[6]; [13]
  Serum Testosterone: 0.141 ng/mL
[7]
  Reduction of tumour weights compared to vehicle-treated mice: 27%

## CC(C)(C)NC(=O)[C@H]1CC[C@H]2[C@@H]3CC[C@H]4NC(=O)C=C[C@]4(C)[C@H]3CC[C@]12C [Finasteride, reference compound]
[8]; first experiment
  Serum PSA levels versus control: significantly lower
[8]; second experiment
  Serum PSA levels versus control: significantly lower
[1]; [12]
  Serum DHT: 137.0 pg/mL
[1]; [10]
  Serum DHT: 223.4 pg/mL
[2]
  IC50: 33 nM
[4]
  IC50: > 5000 nM
[6]; [13]
  Serum Testosterone: 1.389 ng/mL
[6]; [11]
  Serum Testosterone: 0.638 ng/mL
[7]
  Reduction of tumour weights compared to vehicle-treated mice: 22%
[7]; second experiment
  Inhibition of LNCaP tumour growth (tumour volume): 29%
  Reduction of tumour weights: 28%
[9]; Homo sapiens, LNCaP, 5 μM concentration
  inhibition at 5 µM: 25%
[9]; concentrations of 1.0-5.0 μM, 9 days
  Inhibition of LNCaP cell growth in steroid-free media: 20-30%

## CC(=O)N1CCN(c2ccc(OCC3COC(Cn4ccnc4)(c4ccc(Cl)cc4Cl)O3)cc2)CC1 (stereo not shown) [Ketoconazole, reference compound]
[1]; [12]
  Serum DHT: 224.3 pg/mL
[1]; [10]
  Serum DHT: 218.0 pg/mL
[2]
  IC50: > 5000 nM
[3]
  Stimulation of cell growth compared to DHT-treated cells: 10-20%
[5]
  Effect on testosterone-stimulated cell growth (words): stimulate cell proliferation at low concentrations
[5]; listed as ketoconazole
  Effect on testosterone-stimulated cell growth (words): biphasic growth responses
[6]; [13]
  Serum Testosterone: 1.526 ng/mL
[6]; [11]
  Serum Testosterone: 0.298 ng/mL
[7]; second experiment
  Effect on tumour growth (words): Neither VN/63-1, VN/107 nor ketoconazole had any appreciable effects
[9]; high concentrations (2.5 and 5.0 μM), 9 days
  Stimulation of LNCaP cell growth in steroid-free media: 30-40%
